Where “and” joins values, the source holds several entries; their conditions need not be identical. Equal values may be shown once. Inconclusive results and toxic doses are left out. No stated cut-off is given here; in the data, active means T/C of 150% or more; inactive means T/C below 125%.
Tested on: L1210 leukemia ip in BDF1 mice, survival T/C
Assay: NCI In Vivo Anticancer Drug Screen. Data for tumor model L1210 Leukemia (intraperitoneal) in B6D2F1 (BDF1) mice
Conditions: endpoint: mean survival time, higher = longer survival
Method in brief: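 Value reflects the ratio of survival in compound-treated mice to survival in vehicle-treated controls, with both groups carrying the same transplanted tumor.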

[1] = dose: 100.0 mg/kg/injection, schedule: Q01DX009 (ip), vehicle: Klucel (hydroxypropylcellulose) (HPC)
[2] = dose: 100.0 mg/kg/injection, schedule: Q04DX003 (ip), vehicle: Klucel (hydroxypropylcellulose) (HPC)
[3] = dose: 200.0 mg/kg/injection, schedule: Q01DX009 (ip), vehicle: Klucel (hydroxypropylcellulose) (HPC)
[4] = dose: 200.0 mg/kg/injection, schedule: Q04DX003 (ip), vehicle: Klucel (hydroxypropylcellulose) (HPC)
[5] = dose: 400.0 mg/kg/injection, schedule: Q01DX009 (ip), vehicle: Klucel (hydroxypropylcellulose) (HPC)
[6] = dose: 400.0 mg/kg/injection, schedule: Q04DX003 (ip), vehicle: Klucel (hydroxypropylcellulose) (HPC)
[7] = dose: 30.0 mg/kg/injection, schedule: Q01DX Z (ip), vehicle: carboxymethylcellulose (CMC)
[8] = dose: 100.0 mg/kg/injection, schedule: Q04DX003 (ip), vehicle: saline
[9] = dose: 200.0 mg/kg/injection, schedule: Q04DX003 (ip), vehicle: saline
[10] = dose: 50.0 mg/kg/injection, schedule: Q01DX009 (ip), vehicle: Klucel (hydroxypropylcellulose) (HPC)
[11] = dose: 400.0 mg/kg/injection, schedule: Q04DX003 (ip), vehicle: saline
[12] = dose: 5.0 mg/kg/injection, schedule: Q01DX001 (ip), vehicle: saline
[13] = dose: 10.0 mg/kg/injection, schedule: Q01DX001 (ip), vehicle: saline
[14] = dose: 20.0 mg/kg/injection, schedule: Q01DX001 (ip), vehicle: saline
[15] = dose: 50.0 mg/kg/injection, schedule: Q01DX001 (ip), vehicle: saline
[16] = dose: 100.0 mg/kg/injection, schedule: Q01DX001 (ip), vehicle: saline

Measured: T/C

O=CNC(Cc1cccc(N(CCCl)CCCl)c1)C(=O)O (configuration not stated)
inactive: dose: 8.0 mg/kg/injection, schedule: Q01DX Z (ip), vehicle: methylcellulose (MC) 106 % of control | dose: 12.0 mg/kg/injection, schedule: Q01DX Z (ip), vehicle: methylcellulose (MC) 95 % of control | dose: 18.0 mg/kg/injection, schedule: Q01DX Z (ip), vehicle: methylcellulose (MC) 103 % of control | dose: 27.0 mg/kg/injection, schedule: Q01DX Z (ip), vehicle: methylcellulose (MC) 97 % of control

CCC(O)c1cnc(OCc2ccccc2)nc1OCc1ccccc1 (configuration not stated)
inactive: [1] 94 % of control | [2] 96 % of control | [3] 95 % of control | [4] 95 % of control | [5] 90 % of control | [6] 100 % of control

CC(=O)Nc1ccc(OC(=S)N(C)C)cc1
inactive: [2] 96 % of control | [4] 97 % of control | [6] 101 % of control

ClCCN(CCCl)CCn1cnc2c(SCc3ccccc3)ncnc21
inactive: dose: 13.0 mg/kg/injection, schedule: Q01DX Z (ip), vehicle: carboxymethylcellulose (CMC) 103 % of control | dose: 20.0 mg/kg/injection, schedule: Q01DX Z (ip), vehicle: carboxymethylcellulose (CMC) 108 % of control | [7] 105 % of control | dose: 45.0 mg/kg/injection, schedule: Q01DX Z (ip), vehicle: carboxymethylcellulose (CMC) 110 % of control

COc1ccc2[nH]c3c(c2c1)CSc1ccccc1-3
inactive: [1] 110 % of control | [3] 104 % of control | [5] 94 % of control

CC(=O)OCC1OC(Oc2c(Br)cc(Br)cc2Br)C(OC(C)=O)C(OC(C)=O)C1OC(C)=O (configuration not stated)
inactive: dose: 100.0 mg/kg/injection, schedule: Q04DX003 (ip), vehicle: saline with Tween-80 96 % of control | dose: 200.0 mg/kg/injection, schedule: Q04DX003 (ip), vehicle: saline with Tween-80 101 % of control | dose: 400.0 mg/kg/injection, schedule: Q04DX003 (ip), vehicle: saline with Tween-80 95 % of control

CC(C)(C)C1CCC2(CC1)CC(=O)N(N1CCCCCC1)C(=O)C2
inactive: dose: 50.0 mg/kg/injection, schedule: Q01DX001 (ip), vehicle: carboxymethylcellulose (CMC) 95 % of control | dose: 100.0 mg/kg/injection, schedule: Q01DX001 (ip), vehicle: carboxymethylcellulose (CMC) 101 % of control | dose: 200.0 mg/kg/injection, schedule: Q01DX001 (ip), vehicle: carboxymethylcellulose (CMC) 95 % of control | dose: 400.0 mg/kg/injection, schedule: Q01DX001 (ip), vehicle: carboxymethylcellulose (CMC) 104 % of control

O=c1cc(C[n+]2ccccc2)[nH]c(=O)[nH]1
inactive: [8] 89 % of control | [9] 89 % of control

CC(Cc1ccccc1)NCCc1c2ccccc2nc2ccccc12 (configuration not stated)
inactive: dose: 12.5 mg/kg/injection, schedule: Q01DX009 (ip), vehicle: Klucel (hydroxypropylcellulose) (HPC) 101 % of control | dose: 25.0 mg/kg/injection, schedule: Q01DX009 (ip), vehicle: Klucel (hydroxypropylcellulose) (HPC) 102 % of control | [10] 98 % of control | [1] 104 % of control | [3] 91 % of control

CCOC(=O)C(CO)(CO)C(=O)OCC
inactive: dose: 100.0 mg/kg/injection, schedule: Q01DX009 (ip), vehicle: saline 106 % of control | dose: 200.0 mg/kg/injection, schedule: Q01DX009 (ip), vehicle: saline 92 % of control | dose: 400.0 mg/kg/injection, schedule: Q01DX009 (ip), vehicle: saline 100 % of control

CN(C)C(=O)C1C2CC3OC(=O)C1C3C2 (configuration not stated)
inactive: [8] 100 % of control and 104 % of control | [9] 94 % of control and 108 % of control | [11] 100 % of control and 104 % of control

CC1(C)OC2OCC(O)C2O1 (configuration not stated)
inactive: dose: 50.0 mg/kg/injection, schedule: Q04DX002 (ip), vehicle: saline 100 % of control | dose: 100.0 mg/kg/injection, schedule: Q04DX002 (ip), vehicle: saline 104 % of control | dose: 200.0 mg/kg/injection, schedule: Q04DX002 (ip), vehicle: saline 110 % of control

CCCCCCCCCCCCNC(=O)c1cc[n+](C)cc1
inactive: dose: 12.5 mg/kg/injection, schedule: Q04DX003 (ip), vehicle: saline 103 % of control and 88 % of control and 93 % of control | dose: 25.0 mg/kg/injection, schedule: Q04DX003 (ip), vehicle: saline 99 % of control and 87 % of control and 91 % of control | dose: 50.0 mg/kg/injection, schedule: Q04DX003 (ip), vehicle: saline 93 % of control and 91 % of control and 88 % of control

O=C(O)c1ccccc1C(=O)c1ccc(Cl)cc1
inactive: [1] 100 % of control | [3] 86 % of control | [5] 100 % of control

BrCc1cccc(C[P+](c2ccccc2)(c2ccccc2)c2ccccc2)c1
inactive: [12] 112 % of control | [13] 114 % of control | [14] 114 % of control | [15] 110 % of control

NCCCCC(N)C(=O)Nc1ccc(Nc2ccc(NC(=O)C(N)CCCCN)cc2)cc1 (configuration not stated)
inactive: [12] 92 % of control | [13] 90 % of control | [14] 92 % of control | dose: 40.0 mg/kg/injection, schedule: Q01DX001 (ip), vehicle: saline 93 % of control | dose: 80.0 mg/kg/injection, schedule: Q01DX001 (ip), vehicle: saline 93 % of control

CC(=O)OCc1cc2cc(O)ccc2nc1C
inactive: [8] 110 % of control | [9] 110 % of control | [11] 116 % of control

CC(=O)N(c1ccccc1)C(C(=O)c1ccccc1)c1ccccc1 (configuration not stated)
inactive: [15] 98 % of control | [16] 102 % of control | dose: 200.0 mg/kg/injection, schedule: Q01DX001 (ip), vehicle: saline 108 % of control | dose: 400.0 mg/kg/injection, schedule: Q01DX001 (ip), vehicle: saline 98 % of control

CCCCSC(=N)N
inactive: [16] 94 % of control

CC(=O)COc1cccc2ccccc12
inactive: dose: 100.0 mg/kg/injection, schedule: Q01DX009 (ip), vehicle: gum acacia 100 % of control | dose: 200.0 mg/kg/injection, schedule: Q01DX009 (ip), vehicle: gum acacia 99 % of control | dose: 400.0 mg/kg/injection, schedule: Q01DX009 (ip), vehicle: gum acacia 97 % of control

CN(C)c1ccc(Cc2ccc(N(C)C)cc2[N+](=O)[O-])c([N+](=O)[O-])c1
inactive: [10] 100 % of control | [1] 98 % of control and 92 % of control | [2] 101 % of control and 102 % of control | [3] 97 % of control and 101 % of control | [4] 102 % of control and 104 % of control | [5] 101 % of control and 92 % of control | [6] 98 % of control and 105 % of control

CCC1(c2ccccc2)NC(=O)NC1=O (configuration not stated)
inactive: dose: 100.0 mg/kg/injection, schedule: Q01DX009 (ip), vehicle: saline with Tween-80 102 % of control | dose: 200.0 mg/kg/injection, schedule: Q01DX009 (ip), vehicle: saline with Tween-80 100 % of control

Fc1ccc(/C=N\N=C(N/N=C/c2ccc(F)cc2)N/N=C/c2ccc(F)cc2)cc1
inactive: dose: 12.5 mg/kg/injection, schedule: Q04DX003 (ip), vehicle: saline with Tween-80 101 % of control | dose: 15.0 mg/kg/injection, schedule: Q01DX Z (ip), vehicle: carboxymethylcellulose (CMC) 97 % of control | dose: 25.0 mg/kg/injection, schedule: Q04DX003 (ip), vehicle: saline with Tween-80 101 % of control | [7] 97 % of control | dose: 30.0 mg/kg/injection, schedule: Q01DX Z (oral), vehicle: carboxymethylcellulose (CMC) 100 % of control | dose: 50.0 mg/kg/injection, schedule: Q04DX003 (ip), vehicle: saline with Tween-80 104 % of control | dose: 60.0 mg/kg/injection, schedule: Q01DX Z (ip), vehicle: carboxymethylcellulose (CMC) 101 % of control | dose: 60.0 mg/kg/injection, schedule: Q01DX Z (oral), vehicle: carboxymethylcellulose (CMC) 93 % of control and 100 % of control | [2] 90 % of control | dose: 120.0 mg/kg/injection, schedule: Q01DX Z (ip), vehicle: carboxymethylcellulose (CMC) 89 % of control | dose: 120.0 mg/kg/injection, schedule: Q01DX Z (oral), vehicle: carboxymethylcellulose (CMC) 98 % of control and 100 % of control | [4] 100 % of control | dose: 240.0 mg/kg/injection, schedule: Q01DX Z (oral), vehicle: carboxymethylcellulose (CMC) 102 % of control and 105 % of control | [6] 87 % of control

— PubChem BioAssay AID248 (DTP/NCI, 2004)
